The NIST ThermoML archive (doi:10.1021/je100362p)

Assays:
[1] = xn = mol fraction of the nth substance listed; conditions: 101 kPa, Liquid; for speed of sound: Sing-around technique in a fixed-path interferometer
[2] = refractive index (Na D-line) (dimensionless); xn = mol fraction of the nth substance listed; conditions: 101 kPa, Liquid, Standard Abbe refractometry

Cc1ccc(O)cc1 [4-methylphenol] + CCCCCCCCCCO
Conditions	mass density, 298.15 K [kg/m3]	mass density, 303.15 K [kg/m3]	mass density, 308.15 K [kg/m3]	refractive index, 298.15 K	refractive index, 303.15 K	refractive index, 308.15 K	speed of sound, 298.15 K [m/s]	speed of sound, 303.15 K [m/s]	speed of sound, 308.15 K [m/s]
[1], x1 = 0.079	836.102	832.641	829.175	–	–	–	1384.9	1367.8	1350.9
[1], x1 = 0.1424	844.261	840.772	837.278	–	–	–	1389	1371.9	1355.1
[1], x1 = 0.2213	855.053	851.531	847.999	–	–	–	1394	1376.9	1360
[1], x1 = 0.2915	865.315	861.764	858.196	–	–	–	1398.6	1381.6	1364.7
[1], x1 = 0.3611	876.182	872.603	869.001	–	–	–	1403.5	1386.4	1369.6
[1], x1 = 0.418	885.652	882.051	878.417	–	–	–	1407.7	1390.8	1373.9
[1], x1 = 0.4915	898.718	895.088	891.418	–	–	–	1413.7	1396.8	1379.9
[1], x1 = 0.5566	911.201	907.546	903.844	–	–	–	1419.6	1402.7	1385.9
[1], x1 = 0.6321	926.903	923.218	919.477	–	–	–	1427.5	1410.7	1394
[1], x1 = 0.7041	943.248	939.531	935.758	–	–	–	1436.1	1419.4	1402.8
[1], x1 = 0.7628	957.751	954.009	950.207	–	–	–	1444	1427.3	1411
[1], x1 = 0.8229	973.785	970.012	966.196	–	–	–	1453.2	1436.7	1420.2
[1], x1 = 0.8793	990.126	986.325	982.485	–	–	–	1462.3	1446.2	1429.9
[1], x1 = 0.9382	1008.68	1004.85	1000.99	–	–	–	1474.2	1458	1442.4
[1], x1 = 1	1030.14	1026.28	1022.38	–	–	–	1486.4	1470.7	1455
[2], x1 = 0.079	–	–	–	1.43878	1.43659	1.43439	–	–	–
[2], x1 = 0.1424	–	–	–	1.44253	1.44025	1.43792	–	–	–
[2], x1 = 0.2213	–	–	–	1.44759	1.44524	1.44279	–	–	–
[2], x1 = 0.2915	–	–	–	1.45252	1.45006	1.44748	–	–	–
[2], x1 = 0.3611	–	–	–	1.45786	1.45529	1.45263	–	–	–
[2], x1 = 0.418	–	–	–	1.46259	1.45994	1.45719	–	–	–
[2], x1 = 0.4915	–	–	–	1.46921	1.46649	1.46363	–	–	–
[2], x1 = 0.5566	–	–	–	1.47562	1.47279	1.46987	–	–	–
[2], x1 = 0.6321	–	–	–	1.48379	1.48088	1.47785	–	–	–
[2], x1 = 0.7041	–	–	–	1.49234	1.48935	1.48629	–	–	–
[2], x1 = 0.7628	–	–	–	1.49988	1.49689	1.49381	–	–	–
[2], x1 = 0.8229	–	–	–	1.50829	1.50524	1.50212	–	–	–
[2], x1 = 0.8793	–	–	–	1.51677	1.51369	1.51055	–	–	–
[2], x1 = 0.9382	–	–	–	1.52626	1.52321	1.52011	–	–	–
[2], x1 = 1	–	–	–	1.537	1.534	1.531	–	–	–

Cc1cccc(O)c1 [3-methylphenol] + CCCCCCCCCCO
Conditions	mass density, 298.15 K [kg/m3]	mass density, 303.15 K [kg/m3]	mass density, 308.15 K [kg/m3]	refractive index, 298.15 K	refractive index, 303.15 K	refractive index, 308.15 K	speed of sound, 298.15 K [m/s]	speed of sound, 303.15 K [m/s]	speed of sound, 308.15 K [m/s]
[1], x1 = 0.0818	836.406	832.948	829.481	–	–	–	1384.4	1367.3	1350.5
[1], x1 = 0.1443	844.417	840.933	837.44	–	–	–	1388.1	1371	1354.3
[1], x1 = 0.2191	854.601	851.084	847.557	–	–	–	1392.5	1375.5	1358.6
[1], x1 = 0.27	861.935	858.394	854.842	–	–	–	1395.7	1378.5	1361.8
[1], x1 = 0.3513	874.407	870.825	867.235	–	–	–	1400.5	1383.7	1366.8
[1], x1 = 0.4154	884.964	881.35	877.727	–	–	–	1404.8	1388	1371.2
[1], x1 = 0.4864	897.533	893.881	890.219	–	–	–	1410.1	1393.4	1376.6
[1], x1 = 0.5447	908.582	904.899	901.205	–	–	–	1415.1	1398.3	1381.5
[1], x1 = 0.6205	924.111	920.384	916.647	–	–	–	1422.3	1405.6	1388.9
[1], x1 = 0.6951	940.809	937.04	933.259	–	–	–	1430.7	1414	1397.5
[1], x1 = 0.7472	953.452	949.651	945.837	–	–	–	1437.2	1420.7	1404.4
[1], x1 = 0.8163	971.635	967.793	963.936	–	–	–	1447.3	1431.1	1414.8
[1], x1 = 0.8738	988.185	984.309	980.414	–	–	–	1457.3	1441	1424.9
[1], x1 = 0.9325	1006.6	1002.69	998.753	–	–	–	1468.8	1452.8	1436.8
[1], x1 = 1	1030.05	1026.09	1022.12	–	–	–	1480.9	1465.2	1449.6
[2], x1 = 0.0818	–	–	–	1.43899	1.43686	1.43464	–	–	–
[2], x1 = 0.1443	–	–	–	1.44269	1.44048	1.43816	–	–	–
[2], x1 = 0.2191	–	–	–	1.44749	1.44514	1.44269	–	–	–
[2], x1 = 0.27	–	–	–	1.45104	1.44858	1.44602	–	–	–
[2], x1 = 0.3513	–	–	–	1.45712	1.45453	1.45183	–	–	–
[2], x1 = 0.4154	–	–	–	1.46234	1.45965	1.45687	–	–	–
[2], x1 = 0.4864	–	–	–	1.46869	1.46584	1.46299	–	–	–
[2], x1 = 0.5447	–	–	–	1.47429	1.47138	1.46848	–	–	–
[2], x1 = 0.6205	–	–	–	1.48226	1.47932	1.47636	–	–	–
[2], x1 = 0.6951	–	–	–	1.49092	1.48799	1.48499	–	–	–
[2], x1 = 0.7472	–	–	–	1.49755	1.49459	1.49161	–	–	–
[2], x1 = 0.8163	–	–	–	1.50709	1.50419	1.50126	–	–	–
[2], x1 = 0.8738	–	–	–	1.51581	1.51296	1.51007	–	–	–
[2], x1 = 0.9325	–	–	–	1.5256	1.52274	1.51982	–	–	–
[2], x1 = 1	–	–	–	1.538	1.535	1.532	–	–	–
